The test system of data set [1] is transient middle cerebral artery occlusion (MCAO) in SD rats. Description: Transient (90 min.) middle cerebral artery occlusion (MCAO) in SD rats. Type of data set: in vivo, rat. As to conditions: 90 min MCAO, 25 mg/kg intravenous bolus at occlusion, then 50 mg/kg subcutaneous repeatedly, histology at 3 days, FIG. 2. From the text: 1. Transient focal cerebral ischemia: A rodent model of transient middle cerebral artery occlusion (MCA) occlusion was used to determine the effect of a representative GSK3 inhibitor compound of the invention, 6-[(2-{[6-(2,4-dichlorophenyl)-5-imidazolyl-2-pyridyl]amino}ethyl)amino]pyridine-3-carbonitrile (CT 99025) in the inhibition of ischemic damage due to stroke. Ischemia was induced using an occluding intraluminal suture model (M. A. Yenari et al., “Time-course and treatment response with SNX-111, an N-type calcium channel blocker, in a rodent model of focal cerebral ischemia using diffusion-weighted MRI,” Brain Res 739:3645 (1996)). Animals were anesthetized with 3% halothane (1-2% maintenance) via face mask. Depth of anesthesia was monitored every 15 minutes by checking toe pinch, and the maintenance halothane levels were adjusted accordingly. […] During the surgical procedure, the following parameters were monitored and maintained in the normal physiological range: mean arterial blood pressure (MABP, measured via a femoral artery catheter), respiratory rate, rectal temperature, heart rate, arterial blood gases, blood glucose, and hematocrit. […]
3. […] Regions without staining were delineated using a computer assisted image analysis program (MCID, St. Catherine's, Ottawa), and expressed as the percent injury of the ipsilateral hemisphere. […]

The test system of a further data set is GSK3. Description: Cell-based glycogen synthase assay for GSK3 inhibitory activity (CHO-HIRC cells). As to conditions: read-out: EC50 (glycogen synthase activity stimulated to 50% of the maximal level), 20 minutes incubation. Here is the method: Likewise, the ability of GSK3 inhibitor compounds to potentiate insulin signaling by activating glycogen synthase can be readily ascertained using a cell-based glycogen synthase activity assay. This assay employs cells that respond to insulin stimulation by increasing glycogen synthase activity, such as the CHO-HIRC cell line, which overexpresses wild-type insulin receptor (˜100,000 binding sites/cell). […] The assay can be carried out by incubating serum-starved CHO-HIRC cells in the presence of various concentrations of compounds of the present invention in the medium, followed by cell lysis at the end of the incubation period. […] The concentration of candidate GSK3 inhibitor that increased glycogen synthase activity to half of its maximal level (i.e., the EC50) can be calculated by fitting a four parameter sigmoidal curve using routine curve fitting methods that are well known to those having ordinary skill in the art.
CHO-HIRC cells are maintained in 10 cm tissue culture plates in Ham's F12 medium/10% dialyzed fetal bovine serum. Cells from a confluent 10 cm plate are harvested and divided into the 6 wells of a 6-well tissue culture plate to a final volume of 2 ml of medium. The cells are left to grow at 37° C. for 24 hours. The cells are then washed three times in Ham's F12 medium containing no fetal bovine serum, and finally the cells are left for a further 24 hours at 37° C. in 2 ml of the serum-free medium.
At the end of this time, 20 μl of compound dissolved in DMSO is added to each well and incubated at 37° C. After 20 minutes the medium is removed and the cells are washed once in PBS at room temperature and then rapidly frozen in the plates in liquid nitrogen. […] Cells are scraped from the plates and frozen in Eppendorf tubes on dry ice. Lysates are then thawed and refrozen on dry ice.
After rethawing, lysates are spun at 14,000 g for 15 minutes. The supernatants are then removed and stored on ice. […] Reactions are incubated at 30° C. for 30 minutes and then spotted onto a 2 cm square 31ET chromatograph paper (Whatman).
Filters are added to 5 ml of liquid scintillant and counted in a liquid scintillation counter. The percentage of the total glycogen synthase that is active in any lysate is expressed as 100× (cpm minus glucose-6-phosphate)/(cpm plus glucose-6-phosphate). Such values are determined in duplicate for 5 different concentrations of compound and for DMSO alone, and the values are then plotted against the logarithm of the concentration. The concentration of compound which stimulates glycogen synthase activity to 50% of the maximal level is determined by fitting a sigmoidal curve to the plotted data. The maximal level is defined as that level to which glycogen synthase activity tends asymtotically as the concentration of test compound increases substantially beyond the EC50.

Data set [2] in a line: Blood brain barrier penetration / plasma drug levels after intravenous dosing in CD rats. Type of data set: in vivo, rat. The conditions noted are these: 10 mg/kg intravenously. As to the method: GSK3 inhibitor blood brain barrier penetration may generally be measured by administering a GSK3 inhibitor compound formulated in 15% captisol/20 mM sodium citrate to a final dose of 10 mg/kg intravenously through a jugular catheter into 250 g CD rats. At 150 minutes post administration brains from the rats were isolated and fast frozen. GSK3 inhibitor plasma levels in the isolated material were established using standard techniques.

A further data set has as its system rat hippocampi cells. Put plainly: GSK3 inhibitor protection of rat hippocampi cells from glutamate induced damage (Trypan Blue count). The arrangement: Cells Surviving (%) Without Glutamate (control): concentration or dose not given beside the values. The conditions noted are these: rat hippocampal neurons, average of 1 to 4 replications. Type of data set: cell-based. Here is the method: Hippocampi were dissected from embryonic day 18-19 rats. The tissue was collected in Hibernate™ media (Gibco BRL) and minced into 1 mm pieces. The tissue was dissociated using the Papain Dissociation System (Worthington Biochemical Corporation). Following isolation the cells were suspended in serum-free media composed of Neurobasal™ (Gibco BRL), 2% B27 supplement (Gibco BRL), L-glutamine and antibiotics. Cells were plated in 12 well plates tissue culture dishes coated with poly-L-lysine at a concentration of 7.5×10^4 cells per well. Following 10-14 days at 37° C. in 5% CO2, the GSK3 inhibitor compounds set forth below were added. Four to eight hours following compound addition, the conditioned media was removed from the cells and the cultures were stored at 37° C. […] The cultures were then either exposed for 5-minutes at room temperature to 200 μM glutamic acid in the same HBSS, or not exposed to glutamic acid as a control. Following exposure, the cultures were rinsed three times with the buffer and then returned to their original conditioned media containing the GSK3 inhibitor compounds. Twenty to 24 hours following glutamic acid exposure, the cultures were rinsed in HBSS and exposed for 10 minutes to Trypan Blue. This dye is taken up by dead cells. The cultures were rinsed then fixed for 30 minutes in 4% paraformaldehyde. The number of live and dead (blue) large neurons are counted (at least 200 cells from each well) by phase contrast microscopy and photographed, and the percentage of surviving cells was determined. […] The results are shown in the following Table 2 as the average of 1 to 4 replications: […]

Consider “6-[(2-{[6-(2,4-dichlorophenyl)-5-imidazolyl-2-pyridyl]amino}ethyl)amino]pyridine-3-carbonitrile [CT 99025]”, for which the “ischemic area (percent injury of the ipsilateral hemisphere) versus vehicle control” value in data set [1] is reported as “substantially reduced”.
`Cc1ccc(-c2nc(NCCNc3ccc([N+](=O)[O-])c(N)n3)ncc2-c2ncc[nH]2)c(Br)c1` [G]: the 50% effective concentration (EC50) in the data set with GSK3 amounted to 53 nM. For the same compound, in data set [2], the CL is 52 [ml/min]/kg. The “Brain (at end of study) drug level” value in data set [2] (brains isolated at 150 minutes post administration) is “<LOQ”. In data set [2] (rat, plasma, iv), the area under the curve (AUC) was 3180 ng·h/mL, the Cmax turned out to be 4600 ng/mL, the Tmax was ~0 h and the half-life came to 31 min. The Vd in data set [2] (rat, plasma, iv, read-out: Vss) worked out at 2.3 L/kg. In addition, the concentration at 0 min in data set [2] (rat, plasma, iv, time 0 min) was < 20 ng/mL. This compound displayed a concentration at 7 min in data set [2] (rat, plasma, iv, time 7 min) of 4050 ng/mL. Moreover, in data set [2] (rat, plasma, iv, time 20 min), the concentration at 20 min came out at 3200 ng/mL. In data set [2] (rat, plasma, iv, time 40 min), this compound displayed a concentration at 40 min of 1330 ng/mL. Also, in data set [2] (rat, plasma, iv, time 70 min), the concentration at 70 min was 796 ng/mL. The compound further displayed a concentration at 100 min in data set [2] (rat, plasma, iv, time 100 min) of 414 ng/mL. In data set [2] (rat, plasma, iv, time 150 min), this compound had a concentration at 150 min of 113 ng/mL. Further, the “Cells Surviving (%) With Glutamate” value in the data set on rat hippocampi cells (200 μM glutamic acid for 5 minutes, counted 20 to 24 hours later) is reported as 65%. Besides, the “Cells Surviving (%) Without Glutamate (control)” value with rat hippocampi cells (not exposed to glutamic acid) is 94%.

The record behind these values is patent US20050203059A1, “Methods and compositions for treatment of ischemia” (priority 2002, published 2005).
